Test results reported in PMC9228955, “Synthesis, Physicochemical, Labeling and In Vivo Characterization of ^44Sc-Labeled DO3AM-NI as a Hypoxia-Sensitive PET Probe” (Pharmaceuticals, 2022).

What was measured:
[1] = Ex vivo biodistribution in healthy control SCID mice; set-up: species or system CB17 SCID mice; conditions: mean ± SD
Protocol: Ex vivo biodistribution studies were carried out 90 min and 240 min after intravenous injection of ^44Sc- or ^68Ga-labeled DO3AM-NI, and the accumulated activities of the organs and tissues were determined using a gamma counter. By the quantitative analysis of the ex vivo data, significant differences were found between the %ID/g values when ^44Sc- and ^68Ga-labeled DO3AM-NI accumulations were compared. […] In contrast, e.g., [^18F]fluorine- [28], [^131I]iodine- [29], [^99mTc]technetium- [30] and [^64Cu]copper-labeled nitroimidazole-based probes, due to their chemical properties, were mainly metabolized via the liver, and the large abdominal accumulation impaired the evaluation of abdominal tumors in the PET images. The ^44Sc- and ^68Ga-labeled nitroimidazole derivatives had more favorable properties in terms of the reporting and evaluation of PET images and due to their rapid elimination through the urinary system.
(§1) For the determination of ex vivo biodistribution of the radiotracers, control and KB tumor-bearing mice were injected intravenously with 8.42 ± 0.38 MBq of ^68Ga- or ^44Sc-labeled DO3AM-NI via the tail vein. Mice were euthanized with 5% isoflurane 90 min or 4 h after intravenous radiotracer injection. Three tissue samples were taken from the selected organs, and their weight and radioactivity were measured with a calibrated gamma counter (Perkin-Elmer Packard Cobra, Waltham, MA, USA). The radiotracer uptake was expressed as %ID/g tissue.

[2] = Octanol/water partition coefficient (logP) of labeled complexes; type: physicochemical; conditions: 1-octanol/water, triplicates
Protocol: (§2) Subsequently, the octanol/water partition coefficient (logP) of the labeled complexes was determined to be −3.89 for [^68Ga]Ga(DO3AM-NI) and −2.59 for [^44Sc]Sc(DO3AM-NI). […] To assess the labeled compounds’ stability, the chelates were mixed with the solution of mouse plasma, Na2H2EDTA and oxalic acid, respectively. Aliquots were then taken at different time points (0, 60, 120 and 240 min) and injected into the radio-HPLC column, and the chromatograms were analyzed. After 240 min, the RCP of the samples was above 93% in all three cases.
A 10 µL volume of [^68Ga]Ga(DO3AM-NI) and [^44Sc]Sc(DO3AM-NI) solution (~5 MBq) was mixed with 500 µL of 1-octanol and 490 µL of water in an Eppendorf vial, respectively. The mixture was shaken with a vortex shaker (600 rpm) for 10 min and centrifuged (6000 rpm) for 5 min. Then, 100 µL from the octanol phase and 1 μL from the aqueous phase were pipetted into vials, and the aqueous aliquot was diluted to 100 µL with water in order to minimize the effects of sample geometry and the high difference of activity concentrations in the two solvents. The radioactivity of the fractions was determined with a gamma counter. The measurements were performed in triplicates for both labeled compounds.

[3] = Stability of labeled complexes in mouse plasma, Na2H2EDTA and oxalic acid by radio-HPLC; type: in vitro ADME
Protocol: as §2
A 10 µL volume of [^68Ga]Ga(DO3AM-NI) and [^44Sc]Sc(DO3AM-NI) solution was added to the solution of 90 µL of mouse plasma, Na2H2EDTA (0.01 M) and oxalic acid (0.01 M), respectively. Samples were analyzed by radio-HPLC at the beginning and after 60, 120 and 240 min. The analytical conditions were the same as detailed for the quality control of the labeled compound.

KB tumors [4] = test: Ex vivo biodistribution in KB tumor xenografts; set-up: species or system CB17 SCID mice; conditions: for KB tumor uptake: 13 ± 1 days after subcutaneous tumor induction, n = 5, mean ± SD
Protocol: For the assessment of the accumulation in the tumors of [^44Sc]Sc(DO3AM-NI) and [^68Ga]Ga(DO3AM-NI), ex vivo biodistribution studies were performed 90 and 240 min post injection using KB tumor xenografts.
(§3) For tumor induction, SCID mice were injected with 5x10^6 KB tumor cells in 0.9% NaCl (100 µL) subcutaneously into the left shoulder area. The tumor growth was assessed by caliper measurements, and tumor size was calculated using the following formula: (largest diameter × smallest diameter^2)/2. In vivo experiments were carried out approximately 13 ± 1 days after […] injection of tumor cells at the tumor volume of approximately 110 mm^3.
as §1

KB tumors [5] = test: In vivo PET/MRI imaging of KB tumor-bearing mice, quantitative SUV analysis; set-up: species or system CB17 SCID mice; conditions: 240 min after injection
Protocol: The tumor-specific accumulation of [^44Sc]Sc(DO3AM-NI) and [^68Ga]Ga(DO3AM-NI) was investigated by PET/MRI imaging 90 and 240 min after radiotracer injection using KB tumor-bearing mice. The subcutaneously growing KB tumors were clearly visualized using [^44Sc]Sc(DO3AM-NI) 90 and 240 min post injection with relatively higher SUVmean and SUVmax values (SUVmean: 1.46 ± 0.32 and SUVmax: 2.35 ± 0.47 at 90 min and SUVmean: 0.67 ± 0.03 and SUVmax: 1.55 ± 0.28 at 240 min). Lower accumulation was found in the same KB tumors by using the ^68Ga-labeled molecule (SUVmean: 0.79 ± 0.10, SUVmax: 1.94 ± 0.40 at 90 min and SUVmean: 0.51 ± 0.09 and SUVmax: 1.23 ± 0.10 at 240 min); however, this difference between the radiotracers was not significant (Figure 4E). […] In contrast, no significant differences were found between the T/M SUV values of the two radiotracers 90 min post injection (Figure 4F).
as §3
For in vivo imaging studies, healthy control and KB tumor-bearing CB17 SCID mice were injected with 8.42 ± 0.38 MBq of ^68Ga- or ^44Sc-labeled DO3AM-NI via the lateral tail vein 13 ± 1 days after the inoculation of KB tumor cells. Then, 65 and 225 min after radiotracer injection, mice were anaesthetized by 3% isoflurane (Forane) with a dedicated small animal anesthesia device and whole-body T1-weighted MRI scans were performed (3D GRE EXT multi-FOV; TR/TE 15/2 ms; phase: 100; FOV 60 mm; NEX 2) using the preclinical nanoScan PET/MRI system with 1 Tesla magnetic field (Mediso Ltd., Hungary). After MRI imaging, 20 min static whole-body PET scans were acquired (90 min and 4 h after radiotracer injection).
Quantitative radiotracer uptake was expressed in terms of standardized uptake value (SUV), SUV = [VOI activity (Bq/mL)]/[injected activity (Bq)/animal weight (g)], assuming a density of 1 g/mL. Volumes of interest (VOI) were manually drawn around the edge of the organ or tumor activity using the InterView™ FUSION (Mediso Ltd., Hungary) image analysis software. Tumor-to-muscle (T/M) ratios were computed as the ratio between the activity in the tumor VOI and in the background (muscle) VOI. Skeletal muscles of the right shoulder area were used as background.

O=C([O-])CN1CCN(CC(=O)[O-])CCN(CC(=O)NCCn2ccnc2[N+](=O)[O-])CCN(CC(=O)[O-])CC1.[44Sc+3] [[^44Sc]Sc(DO3AM-NI)]
Blood uptake ([1]; 90 min after i.v. injection): 0.08 ± 0.01 %ID/g | Fat uptake ([1]; 90 min after i.v. injection): 0.01 ± 0.001 %ID/g | Heart uptake ([1]; 90 min after i.v. injection): 0.04 ± 0.01 %ID/g | Kidney uptake ([1]; 90 min after i.v. injection): 1.17 ± 0.41 %ID/g | Large intestine uptake ([1]; 90 min after i.v. injection): 0.05 ± 0.01 %ID/g | Liver uptake ([1]; 90 min after i.v. injection): 0.14 ± 0.09 %ID/g | Lung uptake ([1]; 90 min after i.v. injection): 0.10 ± 0.04 %ID/g | Muscle uptake ([1]; 90 min after i.v. injection): 0.01 ± 0.01 %ID/g | Small intestine uptake ([1]; 90 min after i.v. injection): 0.10 ± 0.05 %ID/g | Spleen uptake ([1]; 90 min after i.v. injection): 0.07 ± 0.02 %ID/g | Stomach uptake ([1]; 90 min after i.v. injection): 0.09 ± 0.03 %ID/g | Urine uptake ([1]; 90 min after i.v. injection): 57.78 ± 12.41 %ID/g | Blood uptake ([1]; 240 min after i.v. injection): 0.03 ± 0.01 %ID/g | Fat uptake ([1]; 240 min after i.v. injection): 0.01 ± 0.01 %ID/g | Heart uptake ([1]; 240 min after i.v. injection): 0.03 ± 0.01 %ID/g | Kidney uptake ([1]; 240 min after i.v. injection): 0.89 ± 0.23 %ID/g | Large intestine uptake ([1]; 240 min after i.v. injection): 0.04 ± 0.004 %ID/g | Liver uptake ([1]; 240 min after i.v. injection): 0.20 ± 0.04 %ID/g | Lung uptake ([1]; 240 min after i.v. injection): 0.04 ± 0.003 %ID/g | Muscle uptake ([1]; 240 min after i.v. injection): 0.007 ± 0.002 %ID/g | Small intestine uptake ([1]; 240 min after i.v. injection): 0.03 ± 0.01 %ID/g | Spleen uptake ([1]; 240 min after i.v. injection): 0.06 ± 0.01 %ID/g | Stomach uptake ([1]; 240 min after i.v. injection): 0.03 ± 0.005 %ID/g | Urine uptake ([1]; 240 min after i.v. injection): 6.23 ± 1.25 %ID/g | octanol/water partition coefficient (logP) [2]: −2.59 | RCP after 240 min ([3]; Na2H2EDTA (0.01 M)): above 93% | RCP after 240 min ([3]; mouse plasma): above 93% | RCP after 240 min ([3]; oxalic acid (0.01 M)): above 93% | T/M (tumor-to-muscle ratio) (KB tumors [4]; 90 min after injection): 79.30 ± 5.26 | KB tumor uptake (KB tumors [4]; 90 min after injection): 0.82 ± 0.11 %ID/g | T/M (tumor-to-muscle ratio) (KB tumors [4]; 240 min after injection): 99.35 ± 5.14 | KB tumor uptake (KB tumors [4]; 240 min after injection): 0.70 ± 0.14 %ID/g | T/M ratio relative to the T/M ratio of [^68Ga]Ga(DO3AM-NI) (KB tumors [4]; at each time point (90 and 240 min)): 10–15 fold | tumor-to-muscle ratio T/M SUVmax (KB tumors [5]): 129.68 ± 26.11 | tumor-to-muscle ratio T/M SUVmean (KB tumors [5]): 182.67 ± 23.50
